{"source": "patent US9061984B2", "about": "(University of Louisville Research Foundation, Inc., priority 2008, dated 2015)", "key": {"3T3 cells": {"tested_on": "3T3 cells", "assay": "Cell growth inhibition bioassay (sulforhodamine B)", "type": "cell-based, mouse", "settings": "Mus musculus, NIH3T3; 48 h, SRB; read-out: GI50 in indicated cell line: 3T3", "summary_of_the_method": "(§1)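 Cells were exposed to compound alongside matched solvent controls, then stained with sulforhodamine B. Percent growth inhibition was calculated from dye absorbance against the control.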"}, "DU145 cells": {"tested_on": "DU145 cells", "assay": "Cell growth inhibition bioassay (sulforhodamine B)", "type": "cell-based, human", "settings": "Homo sapiens, DU-145; 48 h, SRB; read-out: GI50 in indicated cell line: DU145", "summary_of_the_method": "(§2)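 SRB colorimetric read-out; % growth inhibition vs solvent control. Human lines: MCF-7 (breast adenocarcinoma), DU145 (prostate carcinoma), PC3 (prostate adenocarcinoma), H460 (large cell lung cancer).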"}, "H460 cells": {"tested_on": "H460 cells", "assay": "Cell growth inhibition bioassay (sulforhodamine B)", "type": "cell-based, human", "settings": "Homo sapiens, NCI-H460; 48 h, SRB; read-out: GI50 in indicated cell line: H460", "summary_of_the_method": "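Human cancer cells (MCF-7 breast, DU145 and PC3 prostate, H460 large cell lung) were treated with compounds. Growth relative to solvent control was quantified by SRB protein stain.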"}, "HT-29 cells": {"tested_on": "HT-29 cells", "assay": "Cell growth inhibition bioassay (sulforhodamine B)", "type": "cell-based, human", "settings": "Homo sapiens, HT-29; 48 h, SRB; read-out: GI50 in indicated cell line: HT-29", "summary_of_the_method": "as §1"}, "K562 cells": {"tested_on": "K562 cells", "assay": "Cell growth inhibition bioassay (sulforhodamine B)", "type": "cell-based, human", "settings": "Homo sapiens, K562; 48 h, SRB; read-out: GI50 in indicated cell line: K562", "summary_of_the_method": "as §1"}, "M-14 cells": {"tested_on": "M-14 cells", "assay": "Cell growth inhibition bioassay (sulforhodamine B)", "type": "cell-based, human", "settings": "Homo sapiens, M14; 48 h, SRB; read-out: GI50 in indicated cell line: M-14", "summary_of_the_method": "as §1"}, "MCF-7 cells": {"tested_on": "MCF-7 cells", "assay": "Cell growth inhibition bioassay (sulforhodamine B)", "type": "cell-based, human", "settings": "Homo sapiens, MCF7; 48 h, SRB; read-out: GI50 in indicated cell line: MCF-7", "summary_of_the_method": "as §2"}, "VERO cells": {"tested_on": "VERO cells", "assay": "Cell growth inhibition bioassay (sulforhodamine B)", "type": "cell-based, African Green Monkey", "settings": "Chlorocebus sabaeus, Vero; 48 h, SRB; read-out: GI50 in indicated cell line: VERO", "summary_of_the_method": "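Cytotoxicity is read by sulforhodamine B colorimetry following the Skehan protocol; values are growth inhibition relative to solvent-only wells.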"}, "[1]": {"tested_on": "Trypanosoma cruzi (Tulahuen C4)", "assay": "In vitro anti-T. cruzi activity (β-galactosidase CPRG colorimetric assay in VERO monolayer)", "type": "cell-based", "settings": "for IC50: Trypanosoma cruzi, TULAHUEN, Vero"}, "[2]": {"tested_on": "axenic amastigotes of L. amazonensis (strain MHOM/BR/76/LTB-012)", "settings": "Table 8b"}, "[3]": {"assay": "Cytotoxicity VERO cell (Table 6)", "settings": "African green monkey, VERO cells"}, "[4]": {"assay": "Cytotoxicity on VERO cells (MTT), anti-T. cruzi study", "settings": "African green monkey, VERO cells, Cytotoxicity VERO Lab B, Lab B"}, "L. peruviana LCA08": {"tested_on": "L. peruviana LCA08", "assay": "Activity against macrophages infected with Leishmania amastigotes", "settings": "Leishmania peruviana, Macrophage, read-out: IC50 L. peruviana LCA08", "protocol": "A cloned line of Leishmania amazonensis(strain MHOM/BR/76/LTB-012) was used in all experiments. Axenically grown amastigote forms of L. amazonensis were maintained by weekly subpassages in MAA/20 medium (Sereno and Lemesre, Antimicrobial Agents and Chemotherapy 41, 972-976 (1997)) at 32±1° C. in 25 cm^2 tissue culture flasks. L. peruviana (strain MHOM/PE/LCA08) and L. braziliensis (strainMHOM/PE/PER006) were maintained in the promastigote stage in a biphasic medium (blood agar with 0.89% NaCl, pH 7.4) at 24° C., with sub-passage every 3 to 4 days. Promastigotes (5×10^6 parasites) were then transferred to 25 cm2 tissue culture flasks containing 5 ml of M199 medium supplemented with 10% foetal bovine serum (FBS), pH 7.4. After 4 days, exponential phase promastigotes were centrifuged for 10 minutes at 1500 g and 4° C. The supernatant was discarded and replaced by fresh M199 medium supplemented with 20% FBS, pH 5.5. Axenic amastigotes transformation was then induced by increasing the temperature to 34° C. and incubating for 96 h (Teixeira et al., Parasitology Research 88, 963-968 (2002)).\nExtracted cells were immediately deposited on sterile 4×4 mm cover glasses and placed in each well of a 96-well plate. Plates were incubated for 24 h at 37° C., 5% CO2 to allow cell adhesion (Castillo et al, Journal of Ethnopharmacology 112, 410-414 (2007)). Pre-warmed complete M199 medium was used twice to remove non-adherent cells. A neutral red method (Fautz et al., Mutation Research 253, 173-179 (1991)) was employed to determine cell concentration. Approximately 7×10^4 viable cells were deposited in each well for adhesion.\nInfection of macrophages by amastigotes was determined as follows. […] Twelve hours after infection, a solution of the compounds to be tested was added to the cultures at various concentrations and maintained at 37° C. in 5% CO2 for a further forty-eight hours more. The plates were fixed with methanol and stained with 10% Giemsa stain. The percentage of infected macrophages was determined microscopically at 100 times magnification. The number of intracellular amastigotes was determined in 300 cells. Following Delorenzi et al. Antimicrobial Agents and Chemotherapy, 45, 1349-1354 (2001)) the percentage of infection rate (% IR) of each culture was calculated as follows: % IR=100−(infection rate of the treated culture/infection rate of the untreated culture)×100.\nAll experiments were performed in triplicate. ANOVA was used to test for statistical significance of differences (Epi-Info, Statview student program). The total parasite burden was calculated as a mean number of amastigotes per cells multiplied by the number of infected macrophages."}}, "note": "Where two headings read alike, the source gives them in different places.", "data": [{"smiles": "C(=N/Nc1ncnc2sc3c(c12)CCCC3)/c1ccccn1", "note": "[II-21]", "values": [{"measurement": "GI50", "setting": "3T3 cells", "value": 0.013, "unit": "µg/mL"}, {"measurement": "GI50", "setting": "DU145 cells", "value": 0.115, "unit": "µg/mL"}, {"measurement": "GI50", "setting": "H460 cells", "value": 0.123, "unit": "µg/mL"}, {"measurement": "GI50", "setting": "HT-29 cells", "value": 0.03, "unit": "µg/mL"}, {"measurement": "GI50", "setting": "K562 cells", "value": 0.051, "unit": "µg/mL"}, {"measurement": "GI50", "setting": "M-14 cells", "value": 0.078, "unit": "µg/mL"}, {"measurement": "GI50", "setting": "MCF-7 cells", "value": 0.026, "unit": "µg/mL"}, {"measurement": "GI50", "setting": "VERO cells", "value": 0.156, "unit": "µg/mL"}, {"measurement": "Selectivity Index Lab B", "setting": "[1]; IC50, VERO/IC50, T. cruzi, Lab B", "value": 0.1}, {"measurement": "IC50", "setting": "[1]; Lab A, read-out: T. cruzi IC50 Lab A", "value": 0.1, "unit": "µg/mL"}, {"measurement": "IC50", "setting": "[1]; Lab B, read-out: T. cruzi IC50 Lab B", "value": 1.2, "unit": "µg/mL"}, {"measurement": "Selectivity Index", "setting": "[2]", "value": 13.0}, {"measurement": "IC50", "setting": "[3]", "value": 10.8, "unit": "µg/mL"}, {"measurement": "IC50", "setting": "[4]", "value": "< 0.08", "unit": "µg/mL"}, {"measurement": "IC50", "setting": "L. peruviana LCA08", "value": 0.2, "unit": "µg/mL"}]}]}
